Results taken from patent US20110065629A1, “ENTERAL NUTRIENT” (AMINO UP CHEMICAL CO., LTD., priority 2008, published 2011).

System: Dendritic cells separated from the bone marrow and spleen
Test: External appearance of dendritic cells in plastic dishes with or without LPS
Type: cell-based, normal mice
Settings: AHCC 5 mg/ml, β-glucan 1 mg/ml
Experimental: Dendritic cells separated from the bone marrow and spleen of normal mice were placed in plastic dishes to measure the external appearances of dendritic cells in the case of adding only LPS so as to achieve a final concentration of 5 μg/ml and in the case of adding LPS and AHCC (final concentration: 5 mg/ml) or β-glucan (final concentration: 1 mg/ml).

Substance: β-glucan
- Cell morphology (LPS stimulation (5 μg/ml)): Deformation
- Cell morphology (Normal condition): Spherical
